These are literature values, as cited in patent US8729108B2, “Waterborne topical compositions for the delivery of active ingredients such as azelaic acid” (priority 2008, dated 2014).

With `O=C(O)CCCCCCCC(=O)O` [Azelaic acid, nonanedioic acid], the “solubility in cosmetic oils” value (cosmetic oils) is on record as “little or no solubility”. The “maximum azelaic acid content of an aqueous solution” value (water) is reported as “about 0.24 % by weight (w/w)”.
